Test results: patent US4570005A, “Process for the preparation of 2-arylpropyl ether or thioether derivatives” (priority 1980, dated 1986)
Where two headings read alike, the source gives them in different places.

Legend:
diamond back moth = test: Test 4: Effect on Diamond Back Moth; type: in vivo; settings: Plutella, third-instar larvae, 24 hours, read-out: Mortality (%)
Method in brief: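 Compound formulated as an emulsifiable concentrate, diluted in water to 100 or 20 ppm and sprayed at 3 ml per cup onto cabbage leaves holding 10 third-instar larvae. Mortality counted after 24 hours; mean of three cups.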

green peach aphid = test: Test 5: Effect on Green Peach Aphid; type: in vivo; settings: Myzus persicae; 100 ppm; mortality class; 24 hours; read-out: Insecticidal Activity
Description: (§1) To a mixture of 20 parts of the compound of the present invention and 20 parts of Sorpol SM-200 (registered tradename for the product supplied by Toho Chemical Industrial Co., Ltd.) was added 60 parts of xylol, and the mixture was suffciently blended. The obtained emulsifiable concentrate was diluted at a predetermined concentration with distilled water, and the obtained dilution was used.
Seedlings (having 3 to 4 leaves) of an eggplant grown on a pot were inoculated with green peach aphids and the insects were allowed to grow. The number of the insects was counted. A chemical dilution having a concentration of 100 ppm, prepared in the same manner as described in Test 1, was applied with a spray gun at a rate of 10 ml per pot. Then, the pot was placed in a glass green house. After 24 hours, the number of living insects was counted and the mortality was calculated.
The test was made on three pots, and the average value was calculated. In Table 6, mark "A" indicates a mortality higher than 95%, mark "B" indicates a mortality of 80 to 95%, mark "C" indicates a mortality of 50 to 80%, and mark "D" indicates a mortality lower than 50%.

two-spotted spider mite = test: Test 6: Effect on Two-Spotted Spider mite Adults; type: in vivo; settings: Tetranychus urticae
Description: as §1
A kidney bean leaf disc perforated with a cork borer (15 mm in diameter) was placed on water-impregnated absorbent cotton (2 cm×2 cm), and 10 adults of two-spotted spider mite were set free. A chemical dilution having a concentration of 100 ppm was applied with an applicator in an amount of 3 ml.
The leaf disc-placed absorbent cotton was placed in a thermostat chamber maintained at 25° C. After 24 hours, the number of killed adults was counted and the mortality was calculated. The test was made on three leaf discs and the average value was calculated.

[1] = Test 9: Toxicity Test (acute oral toxicity, mice); settings: mouse, in vivo, po
Description: A predetermined amount of a solution or suspension of a test compound in corn oil was orally administered to male mice having a body weight of 19 to 23 g (0.2 ml per 10 g of the body weight). After 7 days, the number of killed mice was counted and the influences on the mice were examined.

tobacco cutworm [2] = test: Test 1: Effect on Tobacco Cutworm (leaf immersion), mortality after 24 hours; type: in vivo; settings: second-instar larvae, 25° C
Method in brief: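 Sweet-potato leaves dipped 10 s in emulsifiable concentrate diluted to 100 or 20 ppm, air-dried, then exposed to second-instar larvae at 25 °C. Mortality counted after 24 h, averaged over three cups.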

German cockroach = test: Test 7: Effect on German Cockroach; type: in vivo; settings: Blattella germanica
Method in brief: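 Petri dish floors were treated with 50 or 10 mg/m2 of compound (diluted emulsifiable concentrate) and air-dried. Ten male adult German cockroaches per dish were held at 25° C. Agonized and dead insects were counted after 24 hours, averaging two dishes.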

[3] = test system: resistant green rice leafhopper (collected at Nakagawara); test: Test 3: Effect on Resistant Green Rice Leafhopper (collected at Nakagawara); type: in vivo, Nephotettix cincticeps Uhler (Green rice leafhopper); settings: Nephotettix cincticeps, read-out: Mortality (%), Green Rice Leafhopper Collected at Nakagawara
Method in brief: (§2)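 Emulsifiable concentrate diluted to 100 or 20 ppm was sprayed, 3 ml per pot, onto hydroponic rice seedlings at 2–3 leaves. After air-drying, 10 female adults of the Nakagawara (resistant) or Chigasaki (sensitive) strain were released per caged pot. Mortality was counted at 24 h and averaged over three pots.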

tobacco cutworm [4] = test: Test 2: Tobacco Cutworm Larva Dipping Test, mortality after 24 hours; type: in vivo; settings: 24 hours
Method in brief: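 Second- and fifth-instar larvae dipped 5 s in a water dilution of an emulsifiable concentrate at 100 or 20 ppm, blotted, then held on artificial diet at 25° C. Dead and living larvae counted after 24 hours; mortality averaged over three cups.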

[5] = test system: sensitive green rice leafhopper (collected at Chigasaki); test: whole plant or invertebrate; type: in vivo; settings: Nephotettix cincticeps, read-out: Mortality (%), Green Rice Leafhopper Collected at Chigasaki
Method in brief: as §2

Test 8: Fish Toxicity = type: in vivo; settings: carp, water; concentration at which 1/2 of the test fishes were killed within 48 hours; read-out: Fish Toxicity, TLm48
Description: A water tank having a width of 60 cm, a length of 30 cm and a height of 40 cm was filled with water, and 10 yearling carps having a body length of about 5 cm were set free in the tank and adapted to the environment in the tank. A test compound was applied so that the concentration in water was 10, 1 or 0.1 ppm. After 48 hours, the numbers of killed and living carps were counted and the influences on the fishes were examined.

[6] = 100 ppm, adults, 24 hours, 25° C, read-out: Mortality (%)
[7] = 10 mg/m^2, male adults, agonized and killed after 24 hours, read-out: Mortality (%)
[8] = 50 mg/m^2, male adults, agonized and killed after 24 hours, read-out: Mortality (%)
[9] = fifth-instar larvae, read-out: Motality (%), Fifth-Instar Larvae
[10] = second-instar larvae, read-out: Motality (%), Second-Instar Larvae
[11] = 20 ppm, sensitive female adults, 24 hours
[12] = 100 ppm, sensitive female adults, 24 hours

Compound | mortality at 20 ppm (diamond back moth) [%] | mortality at 100 ppm (diamond back moth) [%] | mortality at 100 ppm (two-spotted spider mite; [6]) [%] | LD50 at 168 h [1] [mg/kg] | mortality at 20 ppm (tobacco cutworm [2]) [%] | mortality at 100 ppm (tobacco cutworm [2]) [%] | mortality at 20 ppm ([3]; 24 h) [%] | mortality at 100 ppm ([3]; 24 h) [%] | mortality at 20 ppm [5, 11] [%] | mortality at 100 ppm [5, 12] [%] | LC50 at 48 h (Test 8: Fish Toxicity) [µg/mL] | further results
CC(C)COc1ccc(C(C)(C)COCc2cccc(Oc3ccccc3)c2)cc1 [Compound 64, 3-Phenoxybenzyl 2-(4-isobutyloxyphenyl)-2-methylpropyl ether] | 70 | 100 | 100 | > 500 | – | – | – | – | – | – | – | mortality at 100 ppm (green peach aphid): > 95%
CCOc1ccc(C(C)(C)COCc2cccc(Oc3ccccc3)c2)cc1C [Compound 90, 3-Phenoxybenzyl 2-(4-ethoxy-3-methylphenyl)-2-methylpropyl ether] | 100 | 100 | 100 | > 500 | 100 | 100 | 100 | 100 | 100 | 100 | – | mortality at 10 mg/m2 (German cockroach; [7]): 90%; mortality at 50 mg/m2 (German cockroach; [8]): 100%; mortality at 20 ppm (tobacco cutworm [4]; [9]): 90%; mortality at 20 ppm (tobacco cutworm [4]; [10]): 100%; mortality at 100 ppm (tobacco cutworm [4]; [9]): 100%; mortality at 100 ppm (tobacco cutworm [4]; [10]): 100%
CC(C)(COCc1cccc(Oc2cccc(Cl)c2)c1)c1ccc(OC(F)F)cc1 [Compound 25, 3-(3-Chlorophenoxy)benzyl 2-(4-difluoromethoxyphenyl)-2-methylpropyl ether] | – | – | 90 | > 500 | – | – | 100 | 100 | 100 | 100 | – | –
CCC(C)(COCc1cccc(Oc2ccc(Br)cc2)c1)c1ccc(Cl)cc1 (stereo not shown) [Compound 46] | 100 | 100 | 95 | > 500 | 100 | 100 | 80 | 100 | 65 | 100 | > 10 | mortality at 20 ppm (tobacco cutworm [4]; [9]): 60%; mortality at 20 ppm (tobacco cutworm [4]; [10]): 80%; mortality at 100 ppm (tobacco cutworm [4]; [9]): 80%; mortality at 100 ppm (tobacco cutworm [4]; [10]): 90%
CCCOc1ccc(C(C)(C)COCc2cccc(Oc3ccccc3)c2)cc1 [Compound 57, 3-Phenoxybenzyl 2-[4-(n-propoxy)phenyl]-2-methylpropyl ether] | 75 | 100 | 90 | > 500 | 100 | 100 | 100 | 100 | 100 | 100 | – | mortality at 100 ppm (green peach aphid): > 95%
Cc1ccc(C(C)(C)COCc2cccc(Oc3ccccc3)c2)cc1 [Compound 47, 3-Phenoxybenzyl 2-(4-methylphenyl)-2-methylpropyl ether] | – | – | 100 | > 500 | 90 | 100 | 100 | 100 | 100 | 100 | > 10 | mortality at 10 mg/m2 (German cockroach; [7]): 90%; mortality at 50 mg/m2 (German cockroach; [8]): 100%
CC(C)(COCc1cccc(Oc2ccccc2)c1)c1cc(Cl)cc(Cl)c1 [Compound 56, 3-Phenoxybenzyl 2-(3,5-dichlorophenyl)-2-methylpropyl ether] | – | – | 80 | > 500 | – | – | 100 | 100 | 90 | 100 | – | –
CC(C)(COCc1cccc(Cc2ccccc2)c1)c1ccc(Cl)cc1 [Compound 35, 3-Benzylbenzyl 2-(4-chlorophenyl)-2-methylpropyl ether] | – | – | 85 | > 500 | – | – | 70 | 100 | 50 | 100 | > 10 | –
CCOP(=S)(OCC)Oc1ccc(=O)n(-c2ccccc2)n1 [(d), O,O-diethyl-O-(3-oxo-2-phenyl-2H-pyridazin-6-yl)-phosphorothioate, reference compound] | – | – | – | – | – | – | – | – | – | – | – | mortality at 10 mg/m2 (German cockroach; 24 h): 50%; mortality at 50 mg/m2 (German cockroach; 24 h): 100%; mortality at 100 ppm (two-spotted spider mite; 24 h): 40%; mortality at 20 ppm ([3]; 20 ppm, resistant female adults, 24 hours): 10%; mortality at 100 ppm ([3]; 100 ppm, resistant female adults, 24 hours): 20%; mortality at 20 ppm ([5]; 24 h): 40%; mortality at 100 ppm ([5]; 24 h): 90%
CCC(C)(COCc1cccc(Oc2ccc(Br)cc2)c1)c1ccc(F)cc1 (stereo not shown) [Compound 16, 3-(4-bromophenoxy)benzyl 2-(4-fluorophenyl)-2-ethylpropyl ether] | – | – | 90 | > 500 | – | – | 100 | 100 | 90 | 100 | – | –
C#CCOc1ccc(C(C)(C)COCc2cccc(Oc3ccccc3)c2)cc1 [Compound 98, 3-Phenoxybenzyl 2-(4-propargyloxyphenyl)-2-methylpropyl ether] | – | – | 100 | > 500 | 100 | 100 | – | – | – | – | – | –
CCOCc1ccc(C(C)(C)COCc2cccc(Oc3ccccc3)c2)cc1 [Compound 82, 3-Phenoxybenzyl 2-(4-ethoxymethylphenyl)-2-methylpropyl ether] | – | – | 90 | > 500 | – | – | 100 | 100 | 80 | 100 | – | –
CC(C)(COCc1cccc(Oc2ccc(F)cc2)c1)c1ccc(F)cc1 [Compound 45] | 100 | 100 | 100 | > 500 | 100 | 100 | 100 | 100 | 100 | 100 | > 1 | mortality at 10 mg/m2 (German cockroach; [7]): 100%; mortality at 50 mg/m2 (German cockroach; [8]): 100%
Cc1ccc(C(C)(C)COCc2cccc(Oc3ccc(Br)cc3)c2)cc1 [Compound 33, 3-(4-Bromophenoxy)benzyl 2-(4-methylphenyl)-2-methylpropyl ether] | 90 | 100 | 95 | > 500 | 90 | 100 | 100 | 100 | 100 | 100 | > 10 | –
